What was measured:
Format in all cases: in vivo, Hartley male guinea pigs
[1] = test system: ACh-induced airway contraction in guinea pigs; assay: Acetylcholine-induced pulmonary inflation pressure change before and after saline inhalation (preliminary test); details: for PIP increase (ΔPIP) induced by intravenous ACh, Post value / PIP increase (ΔPIP) induced by intravenous ACh, Pre value / Difference between Pre value and Post value of ACh-induced PIP increase: 30 mg/kg to the duodenum prior to saline inhalation; for PIP increase (ΔPIP) induced by intravenous ACh, Post value: after saline inhalation; for PIP increase (ΔPIP) induced by intravenous ACh, Post value / PIP increase (ΔPIP) induced by intravenous ACh, Pre value: mean±standard error of three cases; for PIP increase (ΔPIP) induced by intravenous ACh, Pre value: before saline inhalation; for Difference between Pre value and Post value of ACh-induced PIP increase: paired t-test
Method: (§1) Hartley male guinea pigs (from Nippon SLC) were raised at a constant temperature (22 to 23° C.) and a constant humidity (50 to 60%) for 2 weeks, and healthy animals of those having a body weight of from 150 to 250 g were used in the test. The guinea pigs were anesthetized with urethane (1.2 g/kg) and subjected to tracheotomy and cannulation. The tracheal cannula was connected to an artificial respiration device for small animals (Model 7025, UGO BASIL by VARASE), and artificial respiration (breathing rate, 60/min; 10 ml/kg) was performed. As an airway contraction index thereof, the pulmonary inflation pressure (hereinafter abbreviated to […], its unit being cmH2O) of the test animal was measured via a pressure transducer (TP-603, by Nippon Kodensha). In addition, a cannula was inserted into the carotid […] of the test animal, and the blood pressure through it was also measured via a pressure transducer (Life KitDX-360, by Nippon Kodensha). After the operation, the guinea pigs were left as such for about 5 minutes, and after the base PIP thereof was stabilized, the test with them was started. 50 μg/kg acetylcholine (hereinafter referred to as ACh, by Sigma) was intravenously administered to each test animal to induce airway contraction therein. After the elevated PIP was lowered to the base line thereof, ACh of the same concentration was again intravenously administered. This operation was repeated until the PIP increase (ΔPIP) was stabilized. After the ΔPIP stabilization was confirmed, ACh was intravenously administered
(§2) (30 μg/kg or 40 μg/kg), and the value ΔPIP in this stage was referred to as a Pre value. 30 minutes thereafter, each test animal was made to inhale 0.1 µg/ml of LTD4 (by Funakoshi) for 30 seconds via an ultrasonic nebulizer (NE-U12, by Omron), and after 15 minutes, ACh was again intravenously administered (30 μg/kgor40μg/kg) to each test animal to induce airway contraction therein. The value ΔPIP in this stage was rendered as a Post value. Relative to those of the LTD4 administration group, the animals of the control group were made to inhale saline in place of LTD4. The Post value and the Pre value were compared with each other in the control group and the LTD4 administration group, and the difference was an index of airway hypersensitiveness expression.
(§3) 30 minutes before the start of the LTD 4 inhalation, a test substance was administered to the duodenum of each test animal. In place of the test substance, 0.5% methyl cellulose (hereinafter abbreviated to MC) was administered to the animals of the control group relative to those of the test substance-administration group.
(§4) The data obtained were expressed as the mean value±standard error thereof. A statistical analysis soft SAS was used for significance test. For significance test of two groups, paired t-test was carried out (FIG. 1, FIG. 2); and for comparison test of multiple groups, Bartlet test was followed by 1-way ANOVA and Dunnett's multiple comparison test. In every test, p<0.05 indicates a significant difference.
The PIP increase (Pre value, white column) induced by the intravenous ACh administration (40 µg/kg) was 8.40±0.76 cmH2O; while the PIP increase (Post value, black column) after the inhalation of saline, as used for a solvent for LTD4 was 8.30±1.07cmH2.
Orotic acid and zinc orotate each were suspended in 0.5% MC just before use.
Orotic acid, zinc orotate (30 mg/kg) or 0.5% MC was intraduodenally administered 30 minutes before the inhalation of saline. The data obtained are expressed as the mean value±standard error of three cases. N.S. (not significant) indicates no statistically significant difference.

[2] = test system: LTD4-induced airway hypersensitiveness in guinea pigs; assay: LTD4-induced airway hypersensitive reaction; details: for ID50 of airway hypersensitiveness inhibition: intraduodenal administration 30 minutes before LTD4 inhalation, guinea pigs; for Airway hypersensitiveness inhibition versus control group: orotic acid 10 to 30 mg/kg, zinc orotate 10, 30 mg/kg to the duodenum
Method: This was to confirm the presence or absence of antiasthmatic effect of orotic acid and zinc orotate. Concretely, the effect of orotic acid and zinc orotate against leukotriene D4 (hereinafter abbreviated to LTD4)-induced airway hypersensitive reaction was investigated in the manner described below.
Expression of LTD4-induced airway hypersensitiveness was carried out according to the method of Sato et al [Clinical and Experimental Allergy, 26, 957-963 (1996)], as shown below:
as §1, §2, §3
as §4, with “In every test, p<0.05 indicates a significant difference.” left out

[3] = test system: ovalbumin (OA)-sensitized guinea pigs; assay: Cell invasion in bronchovesicular washing fluid (BALF) of ovalbumin-sensitized guinea pigs after antigen induction; details: for Number of eosinophils invaded in BALF / Number of the total cells invaded in BALF: 24 hours after induction
Method: The present test was carried out according to the method mentioned below, with reference to the method of Lagente et al [Clin. Exp. Allergy, 23, 1002-1010 (1993)] and the method of Dunn et al [Am. Rev. Resp. Dis., 137, 541-547 ([…])].
Hartley male guinea pigs (from Nippon Charles River) were raised at a constant temperature (22 to 23° C.) and a constant humidity (50 to 60%) and healthy animals of those having a body weight of from 350 to 450 g were used in the test. The guinea pigs were put in a plastic box (30×50×30 cm), and made to inhale 2 mg/ml of a solution of ovalbumin (hereinafter sometimes abbreviated to OA, from Sigma Aldrich) for30minutes, twice at an interval of 48 hours for […] sensitization. An ultrasonic nebulizer (NE-U12, by Omron) was used for the inhalation. Antigen induction in the test animals was carried out 13 to 15 days after the final sensitization, in the same plastic box as that for the sensitization. For it, the test animals were made to inhale 1% (w/v) OA solution for 15 minutes to induce reaction. Those of the control group with no OA inhalation were made to inhale saline.
In this stage, a histamine H1-receptor antagonist, pyrilamine (by Sigma Aldrich) was intravenously administered (2 mg/kg) to the test animals 30 minutes before the antigen induction, for evading animal death owing to anaphylactic shock. Orotic acid, zinc orotate and a PDE4 inhibitor (rolipram, obtained through chemical synthesis) were orally administered one hour before the antigen induction. To those of the control group not administered with orotic acid, zinc orotate or rolipram, 0.5% (w/v) MC solution was administered.
24 to 72 hours after the antigen induction, the bronchovesicles of the test animals were washed (BAL). Namely, the sensitized guinea pigs were anesthetized with pentobarbital (intravenous-administration, 100 mg/kg), and 5 ml of saline was injected into the guinea pigs via a tracheal cannula through a disposable syringe (by Terumo). In about 5 seconds, the saline injected into the guinea pigs was recovered. This operation was repeated twice to collect the bronchovesicular washing fluid (BALF). BALF was centrifuged at 2500 rpm (1250 ×g) at 4° C. for 10 minutes. The supernatant was removed by suction, and the deposited cells were suspended in one ml of saline. In the suspension, the number of all leucocytes was counted with an automatic cell counter (Celltec MEK-4300, by Nippon Kodensha). A part of the cells were formed into a smear with Cytospin III (by Shand on Southern Instruments). […] Specifically, eosinophils (Eos), neutrophils (Neu), macrophages (Mac), lymphocytes (Lym) and other cells (Other) were counted, and their ratio was calculated. The number of the respective cells was calculated by multiplying the number of all leucocytes by the ratio of the cells counted in the fraction.
The data obtained were expressed as the mean value±standard error thereof. A statistical analysis soft SAS was used for significance test. For significance test of the two groups, Student's t-test was carried out; and for comparison test of multiple groups, Bartlet test was followed by 1-way ANOVA and Dunnett's multiple comparison test. […]
Orotic acid was orally administered 1 hour before the OA inhalation. The data obtained are expressed as the mean value ±standard error of 9 or 10 cases.
Zinc orotate was orally administered 1 hour before the OA inhalation. The data obtained are expressed as the mean value±standard error of 9 or 10 cases. […]

[4] = 100 mg/kg orally 1 hour before OA antigen induction
[5] = 100 or 300 mg/kg orally 1 hour before OA antigen induction

With O=C(O)c1cc(=O)[nH]c(=O)[nH]1 [orotic acid, uracil-4-carboxylic acid] as the compound, how does the “PIP increase (ΔPIP) induced by intravenous ACh, Post value” [1] read?
Its value is 7.33±1.20 cmH2O.

And the “PIP increase (ΔPIP) induced by intravenous ACh, Pre value” [1]?
Its value is 7.50±1.04 cmH2O.

And the “Difference between Pre value and Post value of ACh-induced PIP increase” value [1]?
The value was “no significant difference”.

What about the “Influence on ACh-induced airway contraction” value ([1]; FIG. 1, 30 mg/kg intraduodenal) of the same compound?
The value was “did not have any influence on airway contraction”.

And the “Statistical significance of airway hypersensitiveness inhibition” value ([2]; dose of 30 mg/kg to the duodenum, versus MC control, p<0.05)?
The value was “showed a statistical significance”.

What about the “ID50 of airway hypersensitiveness inhibition” value [2] of the same compound?
Its value is 20.1 mg/kg.

And the “Airway hypersensitiveness inhibition versus control group” value [2]?
Its value is “showed airway hypersensitiveness inhibition that depends on the increase in the dose”.

And the “Number of eosinophils invaded in BALF” value [3, 4]?
Its value is “decreased”.

And the “Number of the total cells invaded in BALF” value [3, 4]?
The value was “decreased”.

Which “Effect against cell invasion, 24 hours compared with 48 hours after antigen induction” value ([3]; orally one hour before antigen induction, not illustrated) does the source give for COc1ccc(C2CNC(=O)C2)cc1OC1CCCC1 (centres unmarked) [rolipram, reference compound] here?
The value was “any significant difference in the cell invasion was not found between 24 hours and 48 hours”.

zinc orotate was tested. Which “PIP increase (ΔPIP) induced by intravenous ACh, Post value” [1] did it give?
The value was 8.00±1.44 cmH2O.

What about the “PIP increase (ΔPIP) induced by intravenous ACh, Pre value” [1] of the same compound?
Its value is 7.67±1.20 cmH2O.

What about the “Difference between Pre value and Post value of ACh-induced PIP increase” value [1] of the same compound?
Its value is “no significant difference”.

And the “ID50 of airway hypersensitiveness inhibition” value [2]?
Its value is 16.2 mg/kg.

What about the “Airway hypersensitiveness inhibition versus control group” value [2] of the same compound?
The value was “showed airway hypersensitiveness inhibition that depends on the increase in the dose”.

What about the “Number of eosinophils invaded in BALF” value [3, 5] of the same compound?
Its value is “decreased”.

What about the “Number of the total cells invaded in BALF” value [3, 5] of the same compound?
Its value is “decreased”.

From patent US20040235873A1, “Antiinflammatoric and antitussive compositions” (priority 2001, published 2004)
